In article PMC3422259, “Additive Mixture Effects of Estrogenic Chemicals in Human Cell-Based Assays Can Be Influenced by Inclusion of Chemicals with Differing Effect Profiles” (PLoS ONE, 2012):
Where two headings read alike, the source gives them in different places.

Key:
[1] = tested on: MCF-7 cells; experiment: Estrogenicity assay, mitogenic endpoint (ESCREEN); set-up: Emax: dose or concentration left out as unconfirmed
Description: The ESCREEN assay was performed using cloned MCF-7 cells (described in [6], gifted from A. Soto, Boston) and the established ESCREEN method was followed using an adapted 96-well format. Cells were cultured in DMEM (5% FCS). For experiments, cells were seeded in clear polystyrene 96 well plates at a density of 2,500 cells/well and allowed to attach for 24 hours before washing with rinse media (phenol red-free DMEM, no supplements). […] Test chemicals were dissolved in ethanol to give stock solutions of millimolar concentrations. Test and control solutions were diluted prior to application in dosing media (phenol red free DMEM, 10% charcoal-dextran stripped FCS). The final concentration of ethanol was 0.5% in test and control wells. […] At all stages, media removal from cells was carried out gently and in a controlled fashion by use of an electronic multichannel pipette set to the lowest speed possible. Controls were run as eight replicate wells per plate and compounds were tested in a dilution series comprising eight concentrations, each concentration tested in two replicate wells per plate. The plate layout was designed to reduce variation due to evaporation and spreading of test chemicals, and had been previously optimised in the laboratory. After application of test solutions, plates were incubated for 120 hours before fixation with 10% trichloroacetic acid and sulforhodamine B (SRB) staining to measure protein and allow the indirect quantification of cell number.
(§1) Experiments were performed on different days meaning that results for different dilution series and different batches of the test chemicals were obtained on different days. Each single chemical was tested in three or more independent experiments. Use of normalisation meant that data from different experiments could be reliably combined and compared, as discussed previously. Data was expressed relative to the positive control, rather than as fold change from the vehicle response, for two reasons.
(§2) Results from regression analysis for each test chemicals were used to predict the CA effect for fixed-ratio mixtures designed on 1) equi-effective concentrations (balanced design), 2) possible human serum levels (non-balanced design). The original mathematical formulation of CA that defines for a mixture composed of n components with concentration c1 of the first component, c2 of the second component, and cn for the n-th component a combination effect X is [drawing 1] (1) Here, ECX1, ECX1 …, ECXn are the concentrations of the individual components that on their own produce the same effect X as the mixture, [15] The quotients cn/ECXn are called toxic units and scale all compounds in the mixture relative to their toxicity. They can be interpreted as the contribution of the compound to the total mixture concentration that is expected to produce the mixture effect X. According to equation 1, a mixture effect for a pre-defined effect level X is described only implicitly. However, if the individual concentrations ci are expressed as relative fractions pi to the total mixture concentration ECxMix, then equation 1 can be re-arranged to [drawing 2] (2) which allows the direct calculation of the mixture concentration that is expected to produce the mixture effect X. To form a prediction curve, equation 2 is iterated through for various effect levels resulting in sets of effects and their associated predicted mixture concentration which are then plotted to produce a graph of the effect prediction.
Both equations 1 and 2 require knowledge of the concentration of each mixture component that on its own produces the effect magnitude under consideration. For this reason, these equations cannot be used for predicting mixture effects that exceed the maximal effect of the least efficacious component, because those effect concentrations cannot be defined.

[2] = tested on: T47D-KBluc cells; experiment: cells; set-up: Emax: dose or concentration left out as unconfirmed
Description: T47D-KBluc cells were obtained from the ATCC and the protocol established by the depositing authors was followed. Cells were routinely grown in RPMI media (with 10% foetal calf serum (FCS)). For seven days prior to experiments, cells were maintained in low estrogen conditions by the use of pre-assay media (RPMI, 10% charcoal-dextran stripped FCS, no antibiotics). For experiments, cells were seeded in white polystyrene 96 well plates at a density of 10,000 cells/well and allowed to attach for 24 hours before removal of media, and application of test chemicals. Test chemicals were dissolved in ethanol to give stock solutions of millimolar concentrations. Test and control solutions were obtained by dilution of ethanolic stocks in dosing media (phenol red-free RPMI, 5% charcoal-dextran stripped FCS, no antibiotics), and in all cases the final concentration of ethanol was 0.5%. The positive control was 1 nM estradiol. Positive and vehicle controls were run as eight replicate wells per plate, and compounds were tested in a dilution series comprising eight concentrations, each concentration tested in triplicate. As recommended by Wilson et al. two additional controls were also included on each plate: 1) vehicle control plus an antiestrogen, ICI 182,780 (1 µM), and 2) positive control plus ICI 182,780 (1 µM). […] A crude measure of toxicity was provided by comparing values for treatments that were not positive, with the value of the vehicle control. […] 24 hours after application of test and control solutions, a volume of Steady-Glo assay reagent (Promega) equal to the volume of culture media was added and plates were incubated for ten minutes, with shaking, to allow for cell lysis. Plates were then loaded into a plate reader (FLUOstar Optima, BMG Labtech) and incubated for a further ten minutes in the dark, followed by measurement of luminescence. To reduce variation, the temperature of the plate reader chamber was maintained at 27°C throughout.
as §1
Effect concentrations (ECx) were defined relative to the effects of the estradiol concentration used as the positive control, for example EC50 is the concentration producing an effect of 50% of the positive control (estradiol, 1 nM (ERLUX) or 25 nM (ESCREEN)).
as §2, with “implicitly.” for “implicitly. However, if the individual concentrations ci are expressed as relative fractions pi to the total mixture concentration ECxMix, then equation 1 can be re-arranged to [drawing 2] (2) which allows the direct calculation of the mixture concentration that is expected to produce the mixture effect X. To form a prediction curve, equation 2 is iterated through for various effect levels resulting in sets of effects and their associated predicted mixture concentration which are then plotted to produce a graph of the effect prediction.”

[3] = Homo sapiens, MCF7, read-out: Concentration Response Function θ^∧ max
[4] = Homo sapiens, read-out: Concentration Response Function θ^∧ max
[5] = Homo sapiens, read-out: Supramaximal response, of estradiol maxima
[6] = Homo sapiens, MCF7, read-out: Maxima at effect levels relative to that of estradiol (submaximal response)

Compound | EC10 ([1]; Homo sapiens, MCF7, 120 h) [nM] | EC25 ([1]; Homo sapiens, MCF7, 120 h) [nM] | Emax [1, 3] [%] | EC10 ([2]; Homo sapiens, 24 h) [nM] | EC25 ([2]; Homo sapiens, 24 h) [nM] | Emax [2, 4] [%] | Emax [2, 5] [%] | Emax [1, 6] [%] | EC10 ([2]; ERLUX, concentration producing 10% effect relative to positive control 1 nM estradiol, 24 hours) [nM] | EC25 ([2]; ERLUX, concentration producing 25% effect relative to positive control 1 nM estradiol, 24 hours) [nM] | Concentration Response Function θ^∧ max ([2]; ERLUX, estimated maximal model asymptote, effect relative to positive control (1 nM estradiol)) | EC10 ([1]; ESCREEN, concentration provoking 10% effect relative to positive control 25 nM estradiol, 120 hours) [nM] | EC25 ([1]; ESCREEN, concentration provoking 25% effect relative to positive control 25 nM estradiol, 120 hours) [nM] | Concentration Response Function θ^∧ max ([1]; ESCREEN, estimated maximal model asymptote, effect relative to positive control (25 nM estradiol))
OC[C@H](Cc1cccc(O)c1)[C@H](CO)Cc1cccc(O)c1 [Enterodiol] | 3850 | 7450 | 45 | – | – | – | – | – | – | – | – | – | – | –
O=c1c(-c2ccc(O)cc2)coc2cc(O)cc(O)c12 [Genistein] | 4.61 | 13.6 | 93 | 12.4 | 19.6 | 148 | 200 | – | – | – | – | – | – | –
O=C1C[C@@H](c2ccc(O)cc2)Oc2cc(O)cc(O)c21 [Naringenin] | 360 | 833 | 110 | 310 | 506 | 114 | – | – | – | – | – | – | – | –
CCCCOC(=O)c1ccc(O)cc1 [Butylparaben] | 571 | 1320 | 101 | 497 | 881 | 331 | 300 | – | – | – | – | – | – | –
C#C[C@]1(O)CC[C@H]2[C@@H]3CCc4cc(O)ccc4[C@H]3CC[C@@]21C [EE2, Ethinyl estradiol, reference compound] | 0.000635 | 0.00181 | 114 | 0.000651 | 0.00132 | 105 | – | – | – | – | – | – | – | –
COc1ccc(C(=O)c2ccccc2)c(O)c1 [Benzophenone-3] | 1300 | 4310 | 63 | 2270 | 4610 | 177 | 150 | 60 to 70 | – | – | – | – | – | –
O=C1OC[C@H](Cc2cccc(O)c2)[C@H]1Cc1cccc(O)c1 [Enterolactone] | 4150 | 7220 | 139 | 3770 | 8180 | 104 | – | – | – | – | – | – | – | –
Tonalide (AHTN) | – | – | – | – | – | – | – | – | 3610 | 206000 | 0.28 | 1970 | 6130 | 0.46
CC1COCc2cc3c(cc21)C(C)(C)C(C)C3(C)C (centres unmarked) [Galaxolide, Galaxolide (HHCB)] | 5390 | 12300 | 69 | 3930 | 7730 | 91 | – | – | – | – | – | – | – | –
CC(C)(c1ccc(O)cc1)c1ccc(O)cc1 [Bisphenol A] | 45.2 | 81.8 | 121 | 155 | 258 | 144 | 150 | – | – | – | – | – | – | –
O=c1oc2cc(O)ccc2c2oc3cc(O)ccc3c12 [Coumestrol] | 1.56 | 5 | 131 | 1.58 | 3.42 | 101 | – | – | – | – | – | – | – | –
C[C@]12CC[C@@H]3c4ccc(O)cc4CC[C@H]3[C@@H]1CC[C@@H]2O [Estradiol, reference compound] | 0.00112 | 0.00312 | 133 | 0.000653 | 0.00145 | 123 | – | – | – | – | – | – | – | –
c1ccc2c(c1)-c1cccc3cccc-2c13 [Fluoranthene] | 33900 | 88500 | 38 | 60000 | – | 16 | – | – | – | – | – | – | – | –
COC(=O)c1ccc(O)cc1 [Methylparaben] | 7640 | 18000 | 79 | 8140 | 17100 | 206 | – | – | – | – | – | – | – | –
CCCOC(=O)c1ccc(O)cc1 [Propylparaben] | 997 | 2160 | 109 | 1300 | 2210 | 260 | – | – | – | – | – | – | – | –
Cc1ccc(/C=C2/C(=O)C3(C)CCC2C3(C)C)cc1 (centres unmarked) [4MBC, 4-methylbenzylidene camphor] | 899 | 2210 | 63 | 1810 | 5000 | 82 | – | 60 to 70 | – | – | – | – | – | –
Brc1ccc(Oc2c(Br)cc(Br)cc2Br)c(Br)c1 [BDE100, Brominated diphenyl ether-100] | 704 | 2410 | 71 | 5360 | 12800 | 172 | – | – | – | – | – | – | – | –
